SMILES strings stand for the structures. Where only a bound is given, the exact number is not on record here.

One may read the IC50 as the concentration needed to halve the response being measured.

The target in the assay is T1, C5aR (Homo sapiens, UniProt P21730).
T1 construct: U937 cells are a monocytic cell line which express C5aR; host or cells: U937 cells (cAMP treated) or isolated neutrophils
T1 sequence (P21730 1-350): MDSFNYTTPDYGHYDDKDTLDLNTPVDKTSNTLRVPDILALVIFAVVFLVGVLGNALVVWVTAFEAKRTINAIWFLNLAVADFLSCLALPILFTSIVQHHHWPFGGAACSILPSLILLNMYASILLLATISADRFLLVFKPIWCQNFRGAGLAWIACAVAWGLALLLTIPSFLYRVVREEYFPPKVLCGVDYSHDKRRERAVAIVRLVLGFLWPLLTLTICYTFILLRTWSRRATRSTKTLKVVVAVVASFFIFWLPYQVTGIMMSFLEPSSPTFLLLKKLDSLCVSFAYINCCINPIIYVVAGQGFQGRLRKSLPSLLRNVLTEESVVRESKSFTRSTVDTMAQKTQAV
Kind of assay: chemotaxis assay (C5aR mediated migration). The format is cell-based. To be noted: migration of U937 or neutrophil cells toward C5a (0.03 nM), 1.5 hours at 37° C., read-out: Mig IC50. Summed up:
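Migration of cAMP-treated U937 cells (0.5 mM overnight), or of human or murine neutrophils, toward C5a was measured through 5 μm polycarbonate filters in HBSS with 1% FBS. SDF-1α served as a specificity control. After 1.5 h at 37 °C, lower-chamber cells were counted directly or by CyQuant.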
On to `Cc1cccc(C)c1-n1nc2c(c1-c1c(F)cc(Cl)c3[nH]ccc13)CN(c1ncc(C(F)(F)F)cn1)CC2` [Example 1.122], for which the half-maximal inhibitory concentration (IC50) fell in the range of 5 to 50 nM.

With `CCc1cccc(CC)c1-n1nc2c(c1-c1cc(F)c(C)c3[nH]ccc13)CN(c1ncc(C(F)(F)F)cc1F)CC2` [Example 1.123], the 50% inhibitory concentration (IC50) is less than 5 nM.

In the case of `Cc1cccc(C)c1-n1nc2c(c1-c1c(F)cc(Cl)c3[nH]ccc13)CN(c1ncc(C(F)(F)F)cc1F)CC2` [Example 1.124], the IC50 lay within 5 to 50 nM.

As to `CCc1cccc(CC)c1-n1nc2c(c1-c1c(F)cc(Cl)c3[nH]ccc13)CN(c1ncc(C(C)C)cc1F)CC2` [Example 1.125], the IC50 is less than 5 nM.

`CCc1cccc(CC)c1-n1nc2c(c1-c1ccc(Cl)c3[nH]ccc13)CN(c1ncc(OC)cn1)CC2` [Example 1.126]: the 50% inhibitory concentration (IC50) was less than 5 nM.

Regarding `CCc1cccc(CC)c1-n1nc2c(c1-c1ccc(C)c3[nH]ccc13)CN(c1ccc(C(C)C)cn1)CC2` [Example 1.127], the half-maximal inhibitory concentration (IC50) was less than 5 nM.

Take `CCc1cccc(CC)c1-n1nc2c(c1-c1c(F)cc(C)c3[nH]ccc13)CN(c1ccc(C(C)C)cn1)CC2` [Example 1.128]: the IC50 was less than 5 nM.

Consider `CCc1cccc(CC)c1-n1nc2c(c1-c1ccc(Cl)c3[nH]ccc13)CN(c1nccc(N)n1)CC2` [Example 1.129], for which the IC50 lay in the range of 50 to 500 nM.

As for `Cc1cccc(C)c1-n1nc2c(c1-c1ccc(C)c3[nH]ccc13)CN(c1ccc(C(F)(F)F)cn1)CC2` [Example 1.130], the IC50 fell in the range of 5 to 50 nM.

For `Cc1cccc(C)c1-n1nc2c(c1-c1ccc(C)c3[nH]ccc13)CN(c1ncc(C(C)C)cn1)CC2` [Example 1.131], the IC50 is 5 to 50 nM.

In the case of `CCc1cccc(CC)c1-n1nc2c(c1-c1c(F)cc(Cl)c3[nH]ccc13)CN(c1ncc(C(C)C)cn1)CC2` [Example 1.132], the IC50 was less than 5 nM.

On to `CCc1cccc(CC)c1-n1nc2c(c1-c1c(F)cc(Cl)c3[nH]ccc13)CN(c1ccc(C(F)(F)F)cn1)CC2` [Example 1.133], for which the concentration for half-maximal inhibition (IC50) is less than 5 nM.

In the case of `COc1cccc(C)c1-n1nc2c(c1-c1ccc3[nH]ccc3c1)CN(C(=O)OC(C)(C)C)CC2` [Example 1.134], the half-inhibitory concentration (IC50) was 50 to 500 nM.

Take `CCc1cccc(CC)c1-n1nc2c(c1-c1ccc(Cl)c3[nH]ccc13)CN(c1ccc(C(C)C)cn1)CC2` [Example 1.135]: the 50% inhibitory concentration (IC50) is less than 5 nM.

Regarding `CCc1cccc(CC)c1-n1nc2c(c1-c1ccc(C)c3[nH]ccc13)CN(c1ncc(C(C)C)cc1F)CC2` [Example 1.136], the IC50 is less than 5 nM.

Turning to `CCc1cccc(CC)c1-n1nc2c(c1-c1c(F)cc(Cl)c3[nH]ccc13)CN(c1ncc(C(F)(F)F)cn1)CC2` [Example 1.137], the IC50 is less than 5 nM.

Consider `CCc1cccc(CC)c1-n1nc2c(c1-c1ccc(Cl)c3[nH]ccc13)CN(c1nccc(C(F)(F)F)n1)CC2` [Example 1.138], for which the IC50 was less than 5 nM.

`CCc1cccc(CC)c1-n1nc2c(c1-c1c(F)cc(C)c3[nH]ccc13)CN(c1ncc(C(C)C)cn1)CC2` [Example 1.139]: the IC50 was less than 5 nM.

`CCc1cccc(CC)c1-n1nc2c(c1-c1ccc(C)c3[nH]ccc13)CN(c1ncc(C(F)(F)F)cn1)CC2` [Example 1.140]: the IC50 was less than 5 nM.

Consider `CCc1cccc(CC)c1-n1nc2c(c1-c1c(F)cc(C)c3[nH]ccc13)CN(c1ncc(C(F)(F)F)cn1)CC2` [Example 1.141], for which the IC50 was less than 5 nM.

As for `CCc1cccc(CC)c1-n1nc2c(c1-c1ccc(C)c3[nH]ccc13)CN(c1ccc(C(F)(F)F)cn1)CC2` [Example 1.142], the IC50 was less than 5 nM.

Turning to `CCc1cccc(CC)c1-n1nc2c(c1-c1c(F)cc(C)c3[nH]ccc13)CN(c1ccc(C(F)(F)F)cn1)CC2` [Example 1.143], the half-maximal inhibitory concentration (IC50) was less than 5 nM.

In the case of `CCc1cccc(CC)c1-n1nc2c(c1-c1c(F)cc(Cl)c3[nH]ccc13)CN(c1ncc(C(F)(F)F)cc1F)CC2` [Example 1.144], the 50% inhibitory concentration (IC50) is less than 5 nM.

Regarding `CCc1cccc(CC)c1-n1nc2c(c1-c1c(F)cc(C)c3[nH]ccc13)CN(c1ncc(C(C)C)cc1F)CC2` [Example 1.145], the IC50 was less than 5 nM.

Consider `CCc1cccc(CC)c1-n1nc2c(c1-c1ccc(Cl)c3[nH]cc(C)c13)CN(c1ncc(C(F)(F)F)cc1F)CC2` [Example 1.146], for which the IC50 is less than 5 nM.

In the case of `CCc1cccc(CC)c1-n1nc2c(c1-c1ccc(C)c3[nH]ccc13)CN(c1ncc(C(C)C)cn1)CC2` [Example 1.147], the IC50 was less than 5 nM.

Regarding `CCc1cccc(CC)c1-n1nc2c(c1-c1ccc(Cl)c3[nH]ccc13)CN(c1nc(C)cc(C)n1)CC2` [Example 1.148], the IC50 is less than 5 nM.

`CCc1cccc(CC)c1-n1nc2c(c1-c1ccc(Cl)c3[nH]ccc13)CN(C(=O)Nc1ccccc1)CC2` [Example 1.149]: the IC50 lay within 5 to 50 nM.

`CCc1cccc(CC)c1-n1nc2c(c1-c1c(F)cc(C)c3[nH]ccc13)CN(c1ncc(C(F)(F)F)cc1F)CC2` [Example 1.150]: the IC50 was less than 5 nM.

Turning to `Cc1cccc(C)c1-n1nc2c(c1-c1ccc(Cl)c3[nH]ccc13)CN(c1ncc(C(C)C)cn1)CC2` [Example 1.151], the IC50 is less than 5 nM.

`CCc1cccc(CC)c1-n1nc2c(c1-c1ccc(Cl)c3[nH]ccc13)CN(c1ncc(C(C)C)cc1F)CC2` [Example 1.152]: the half-maximal inhibitory concentration (IC50) was less than 5 nM.

As for `Cc1cccc(C)c1-n1nc2c(c1-c1ccc(Cl)c3[nH]ccc13)CN(c1ncc(C(C)C)cc1F)CC2` [Example 1.153], the IC50 is 5 to 50 nM.

Turning to `Cc1cnc(N2CCc3nn(-c4c(C)cccc4C)c(-c4ccc(Cl)c5[nH]ccc45)c3C2)nc1` [Example 1.154], the IC50 fell in the range of 5 to 50 nM.

With `Cc1cccc(C)c1-n1nc2c(c1-c1ccc(Cl)c3[nH]ccc13)CN(c1ncc(Cl)cn1)CC2` [Example 1.155], the half-maximal inhibitory concentration (IC50) is 5 to 50 nM.

With `CCc1cccc(CC)c1-n1nc2c(c1-c1ccc(Cl)c3[nH]ccc13)CN(c1ncc(C)cn1)CC2` [Example 1.156], the IC50 was less than 5 nM.

Take `CCc1cccc(CC)c1-n1nc2c(c1-c1ccc(Cl)c3[nH]ccc13)CN(c1ncccn1)CC2` [Example 1.157]: the IC50 was less than 5 nM.

Consider `CCc1cccc(CC)c1-n1nc2c(c1-c1ccc(Cl)c3[nH]ccc13)CN(c1ncc(F)cn1)CC2` [Example 1.158], for which the IC50 is less than 5 nM.

With `CCc1cccc(CC)c1-n1nc2c(c1-c1ccc(Cl)c3[nH]ccc13)CN(c1ncc(F)cc1Cl)CC2` [Example 1.159], the half-maximal inhibitory concentration (IC50) is less than 5 nM.

Consider `CCc1cccc(CC)c1-n1nc2c(c1-c1ccc(Cl)c3[nH]ccc13)CN(c1ncc(Cl)cn1)CC2` [Example 1.160], for which the IC50 was less than 5 nM.

`CCc1cccc(CC)c1-n1nc2c(c1-c1ccc(Cl)c3[nH]ccc13)CN(c1ncc(C(F)(F)F)cn1)CC2` [Example 1.161]: the half-maximal inhibitory concentration (IC50) was less than 5 nM.

In the case of `CCc1cccc(CC)c1-n1nc2c(c1-c1ccc(F)c3[nH]cc(Cl)c13)CN(c1ncc(C(F)(F)F)cc1F)CC2` [Example 1.162], the IC50 is 5 to 50 nM.

Take `CCc1cccc(CC)c1-n1nc2c(c1-c1ccc(Cl)c3[nH]ccc13)CN(c1ccc(C(F)(F)F)cn1)CC2` [Example 1.163]: the half-inhibitory concentration (IC50) is less than 5 nM.

With `CCc1cccc(CC)c1-n1nc2c(c1-c1ccc(Cl)c3[nH]ccc13)CN(c1ncc(C(C)C)cn1)CC2` [Example 1.164], the concentration for half-maximal inhibition (IC50) was less than 5 nM.

For `CCc1cccc(CC)c1-n1nc2c(c1-c1ccc(C(C)(C)O)c3[nH]ccc13)CN(c1ncc(C(F)(F)F)cc1F)CC2` [Example 1.165], the half-maximal inhibitory concentration (IC50) was in the range of 50 to 500 nM.

Take `Cc1cccc(C)c1-n1nc2c(c1-c1ccc(F)c3[nH]cc(Cl)c13)CN(c1ncc(C(F)(F)F)cc1F)CC2` [Example 1.166]: the concentration for half-maximal inhibition (IC50) fell in the range of 50 to 500 nM.

Consider `CCc1cccc(CC)c1-n1nc2c(c1-c1ccc(Cl)c3[nH]ccc13)CN(c1ncc(C(C)C)cn1)CC2` [Example 1.167], for which the half-maximal inhibitory concentration (IC50) was less than 5 nM.

Turning to `CCc1cccc(CC)c1-n1nc2c(c1-c1ccc(C(N)=O)c3[nH]ccc13)CN(c1ncc(C(F)(F)F)cc1F)CC2` [Example 1.168], the IC50 lay within 50 to 500 nM.

Consider `Cc1cccc(C)c1-n1nc2c(c1-c1ccc(Cl)c3[nH]ccc13)CN(c1ncc(C(F)(F)F)cc1F)CC2` [Example 1.169], for which the concentration for half-maximal inhibition (IC50) lay in the range of 5 to 50 nM.

`CCc1cccc(CC)c1-n1nc2c(c1-c1ccc(C)c3[nH]cc(Cl)c13)CN(c1ncc(C(F)(F)F)cc1F)CC2` [Example 1.170]: the concentration for half-maximal inhibition (IC50) was less than 5 nM.

On to `CCc1cccc(CC)c1-n1nc2c(c1-c1ccc(CO)c3[nH]ccc13)CN(c1ccc(C(F)(F)F)cn1)CC2` [Example 1.171], for which the IC50 was less than 5 nM.

For `CCc1cccc(CC)c1-n1nc2c(c1-c1ccc(C(=O)OC)c3[nH]ccc13)CN(c1ncc(C(F)(F)F)cc1F)CC2` [Example 1.172], the IC50 is less than 5 nM.

Regarding `CCc1cccc(CC)c1-n1nc2c(c1-c1ccc(F)c3[nH]ccc13)CN(c1cnccn1)CC2` [Example 1.173], the IC50 was 5 to 50 nM.

With `CCc1cccc(CC)c1-n1nc2c(c1-c1ccc(CO)c3[nH]ccc13)CN(c1ncc(C(F)(F)F)cc1F)CC2` [Example 1.174], the IC50 is less than 5 nM.

For `CCc1cccc(CC)c1-n1nc2c(c1-c1ccc(F)c3[nH]ccc13)CN(c1ncc(C3CC3)cc1F)CC2` [Example 1.175], the concentration for half-maximal inhibition (IC50) is less than 5 nM.

In the case of `CCc1cccc(CC)c1-n1nc2c(c1-c1ccc(F)c3[nH]ccc13)CN(c1ncc(C3CC3)cc1Cl)CC2` [Example 1.176], the IC50 is less than 5 nM.

With `CCc1cccc(CC)c1-n1nc2c(c1-c1ccc(F)c3[nH]ccc13)CN(c1ncc(C)cn1)CC2` [Example 1.177], the 50% inhibitory concentration (IC50) was less than 5 nM.

(Values after US11384079B2, “6-5 fused rings as C5a inhibitors” (CHEMOCENTRYX, INC., priority 2017, dated 2022).)
